Test results: US20230099344A1, “COMPOUNDS AND METHODS FOR THE TARGETED DEGRADATION OF IRAK-4” (Arvinas Operations, Inc., priority 2021, published 2023)

Molecular target: T1, IRAK-4 (Homo sapiens, UniProt Q9NWZ3)
T1 sequence (Q9NWZ3 1-460): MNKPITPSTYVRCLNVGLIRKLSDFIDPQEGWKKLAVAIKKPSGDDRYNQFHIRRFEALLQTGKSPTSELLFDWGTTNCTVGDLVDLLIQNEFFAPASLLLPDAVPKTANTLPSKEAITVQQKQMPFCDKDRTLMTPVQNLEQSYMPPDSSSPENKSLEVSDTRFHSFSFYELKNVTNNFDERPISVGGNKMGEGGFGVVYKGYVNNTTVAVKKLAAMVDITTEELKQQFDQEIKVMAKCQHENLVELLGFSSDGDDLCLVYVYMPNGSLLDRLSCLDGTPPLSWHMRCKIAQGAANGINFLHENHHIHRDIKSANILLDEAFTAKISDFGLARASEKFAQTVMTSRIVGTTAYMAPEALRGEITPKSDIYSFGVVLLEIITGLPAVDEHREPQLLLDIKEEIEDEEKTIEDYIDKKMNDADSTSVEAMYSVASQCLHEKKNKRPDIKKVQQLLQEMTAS
Test: IRAK-4 ELISA, OCI-Ly10 degradation
Type: cell-based
Parameters: endogenous in cells
Conditions: treated overnight; for Dmax: OCI-Ly10, OCI-Ly10 cells; for DC50: OCI-Ly10 cells
Method: Reagents: Human IRAK-4 Matched Antibody Pair Kit (Abcam ab218182) and ELISA Accessory Pack (Abcam ab210905).
Cell Treatment and Lysis:
1. OCI-Ly10: 200,000 cells are seeded at 1×10^6/ml in 96-well U-bottom plates 200 ul per well, treated with compound the same day. Incubate overnight. 2. PBMC: 800,000 cells are seeded at 2×10^6/ml in 96-well U-bottom deep-well plates, 400 ul per well, treated with compound the same day. Incubate overnight.
Cell lysate is collected and analyzed by ELISA for IRAK-4 levels.

Row | Structure (SMILES) | Dmax [%] | DC50 [nM]
1 | CC(C)Oc1cc2c(cc1NC(=O)c1cnn3cccnc13)CN(C1CCN(CCc3ccc4c(c3)C(=O)N(C3CCC(=O)NC3=O)C4=O)CC1)C2=O (stereo not shown) [Example 7] | 80 to 90 | 10 to 50
2 | CC(C)Oc1cc2c(cc1NC(=O)c1cnn3cccnc13)CN(C1CCN(CCc3ccc4c(c3)CN(C3CCC(=O)NC3=O)C4=O)CC1)C2=O (stereo not shown) [Example 8] | ≥ 90 | < 10
3 | CC(C)Oc1cc2c(cc1NC(=O)c1cnn3cccnc13)CN(C1CCN(Cc3ccc4c(c3)CN(C3CCC(=O)NC3=O)C4=O)CC1)C2=O (stereo not shown) [Example 10] |  | ≥ 100
4 | CC(C)Oc1cc2c(cc1NC(=O)c1cnn3cccnc13)CN(CC1CN(CCc3ccc4c(c3)CN(C3CCC(=O)NC3=O)C4=O)C1)C2=O (stereo not shown) [Example 26] |  | ≥ 100
5 | O=C1CCC(N2C(=O)c3ccc(N4CCC(CN5CCC(N6Cc7cc(NC(=O)c8cnn9cc(Cl)cnc89)c(N8CCOCC8)cc7C6=O)CC5)CC4)cc3C2=O)C(=O)N1 (stereo not shown) [Example 33] | 80 to 90 | 10 to 50
6 | O=C1CCC(N2Cc3cc(N4CC(CN5CCC(N6Cc7cc(NC(=O)c8cnn9cccnc89)c(N8CCOCC8)cc7C6=O)CC5)C4)ccc3C2=O)C(=O)N1 (stereo not shown) [Example 34] |  | ≥ 100
7 | O=C1CCC(N2Cc3cc(N4CC(CN5CCC(N6Cc7cc(NC(=O)c8cnn9cccnc89)c(N8CCC(N9CCC9)CC8)cc7C6=O)CC5)C4)ccc3C2=O)C(=O)N1 (stereo not shown) [Example 35] | ≥ 90 | 10 to 50
8 | O=C1CCC(N2C(=O)c3ccc(CCN4CCC(N5Cc6cc(NC(=O)c7cnn8cccnc78)c(N7CCOCC7)cc6C5=O)CC4)cc3C2=O)C(=O)N1 (stereo not shown) [Example 37] |  | ≥ 100
9 | CC(C)Oc1cc2c(cc1NC(=O)c1cnn3cccnc13)CN(C1CCN(C3CN(c4cc5c(cc4F)C(=O)N(C4CCC(=O)NC4=O)C5=O)C3)CC1)C2=O (stereo not shown) [Example 63] | ≥ 90 | 10 to 50
10 | O=C1CCC(N2Cc3cc(N4CCC(CN5CCC(n6cc7cc(NC(=O)c8cnn9cccnc89)c(OCC8CC8)cc7n6)CC5)CC4)ccc3C2=O)C(=O)N1 (stereo not shown) [Example 118, N-(6-(cyclopropylmethoxy)-2-(1-((1-(2-(2,6-dioxopiperidin-3-yl)-1-oxoisoindolin-5-yl)piperidin-4-yl)methyl)piperidin-4-yl)-2H-indazol-5-yl)pyrazolo[1,5-a]pyrimidine-3-carboxamide] | ≥ 90 | < 10
11 | O=C1CCC(N2C(=O)c3ccc(OCCOCCN4CCC(n5cc6cc(NC(=O)c7cnn8cc(Cl)cnc78)c(OCC7CC7)cc6n5)CC4)cc3C2=O)C(=O)N1 (stereo not shown) [Example 120] | ≥ 90 | 10 to 50
12 | O=C1CCC(N2C(=O)c3ccc(OCCOCCN4CCC(n5cc6cc(NC(=O)c7cnn8cccnc78)c(OCC7CC7)cc6n5)CC4)cc3C2=O)C(=O)N1 (stereo not shown) [Example 121] | ≥ 90 | 10 to 50
13 | O=C1CCC(N2C(=O)c3ccc(CN4CCC(n5cc6cc(NC(=O)c7cnn8cccnc78)c(OCC7CC7)cc6n5)CC4)cc3C2=O)C(=O)N1 (stereo not shown) [Example 123] |  | ≥ 100
14 | O=C1CCC(N2C(=O)c3ccc(OCCN4CCC(n5cc6cc(NC(=O)c7cnn8cccnc78)c(OCC7CC7)cc6n5)CC4)cc3C2=O)C(=O)N1 (stereo not shown) [Example 125] | 70 to 80 | 10 to 50
15 | O=C1CCC(N2C(=O)c3ccc(CCN4CCC(n5cc6cc(NC(=O)c7cnn8cccnc78)c(OCC7CC7)cc6n5)CC4)cc3C2=O)C(=O)N1 (stereo not shown) [Example 127] | ≥ 90 | 10 to 50
16 | O=C1CCC(N2Cc3cc(N4CCC(CN5CCC(n6cc7cc(NC(=O)c8cnn9cc(Cl)cnc89)c(OCC8CC8)cc7n6)CC5)CC4)ccc3C2=O)C(=O)N1 (stereo not shown) [Example 129] | 80 to 90 | < 10
17 | Cc1cnc2c(C(=O)Nc3cc4cn(C5CCN(CC6CCN(c7ccc8c(c7)C(=O)N(C7CCC(=O)NC7=O)C8=O)CC6)CC5)nc4cc3OCC3CC3)cnn2c1 (stereo not shown) [Example 130] | ≥ 90 | 50 to 100
18 | O=C1CCC(N2Cc3cc(N4CCC(CN5CCC(n6cc7cc(NC(=O)c8cnn9cccnc89)c(C8CC8)cc7n6)CC5)CC4)ccc3C2=O)C(=O)N1 (stereo not shown) [Example 135] | 80 to 90 | < 10
19 | COc1cc2nn(C3CCN(CC4CCN(c5ccc6c(c5)C(=O)N(C5CCC(=O)NC5=O)C6=O)CC4)CC3)cc2cc1NC(=O)c1cnn2cc(C)cnc12 (stereo not shown) [Example 140] | 80 to 90 | 10 to 50
20 | COc1cc2nn(C3CCN(CCc4ccc5c(c4)C(=O)N(C4CCC(=O)NC4=O)C5=O)CC3)cc2cc1NC(=O)c1cnn2cccnc12 (stereo not shown) [Example 144] |  | ≥ 100
21 | COc1cc2nn([C@H]3CCN(CC4CCN(c5ccc6c(c5)CN(C5CCC(=O)NC5=O)C6=O)CC4)C[C@@H]3F)cc2cc1NC(=O)c1cnn2cccnc12 (stereo partly shown) [Example 145] | ≥ 90 | 10 to 50
22 | COc1cc2nn(C3CN(CC4CCN(c5ccc6c(c5)C(=O)N(C5CCC(=O)NC5=O)C6=O)CC4)C3)cc2cc1NC(=O)c1cnn2cccnc12 (stereo not shown) [Example 146] |  | ≥ 100

The next lines start with the values.

Row | Dmax [%] | DC50 [nM] | Structure (SMILES)
23 | ≥ 90 | < 10 | O=C1CCC(N2Cc3cc(N4CCN(CCN5CCC(n6cc7cc(NC(=O)c8cnn9cccnc89)c(OCC8CC8)cc7n6)CC5)CC4)ccc3C2=O)C(=O)N1 (stereo not shown) [Example 160, N-(6-(cyclopropylmethoxy)-2-(1-(2-(4-(2-(2,6-dioxopiperidin-3-yl)-1-oxoisoindolin-5-yl)piperazin-1-yl)ethyl)piperidin-4-yl)-2H-indazol-5-yl)pyrazolo[1,5-a]pyrimidine-3-carboxamide]
24 | ≥ 90 | < 10 | O=C1CCC(N2C(=O)c3ccc(N4CC(CN5CCC(n6cc7cc(NC(=O)c8cnn9cccnc89)c(OCC8CC8)cc7n6)CC5)C4)cc3C2=O)C(=O)N1 (stereo not shown) [Example 162]
25 | ≥ 90 | 10 to 50 | O=C1CCC(N2C(=O)c3ccc(N4CC(N5CCC(n6cc7cc(NC(=O)c8cnn9cccnc89)c(OCC8CC8)cc7n6)CC5)C4)cc3C2=O)C(=O)N1 (stereo not shown) [Example 163]
26 | ≥ 90 | 10 to 50 | O=C1CCC(N2C(=O)c3ccc(N4CC(CN5CCC(n6cc7cc(CC(=O)c8cnn9cc(Cl)cnc89)c(OCC8CC8)cc7n6)CC5)C4)cc3C2=O)C(=O)N1 (stereo not shown) [Example 164]
27 | ≥ 90 | 10 to 50 | CC1(CN2CCC(n3cc4cc(NC(=O)c5cnn6cccnc56)c(OCC5CC5)cc4n3)CC2)CN(c2ccc3c(c2)C(=O)N(C2CCC(=O)NC2=O)C3=O)C1 (stereo not shown) [Example 168]
28 | 70 to 80 | 50 to 100 | O=C1CCC(N2C(=O)c3ccc(N4CCC([C@H](F)Cn5cc6cc(NC(=O)c7cnn8cccnc78)c(OCC7CC7)cc6n5)CC4)cc3C2=O)C(=O)N1 (stereo partly shown) [Example 171]
29 | 80 to 90 | ≥ 100 | O=C1CCC(N2C(=O)c3ccc(N4CC(COC[C@H](F)Cn5cc6cc(NC(=O)c7cnn8cccnc78)c(OCC7CC7)cc6n5)C4)cc3C2=O)C(=O)N1 (stereo partly shown) [Example 172]
30 | 80 to 90 | ≥ 100 | O=C1CCC(N2C(=O)c3ccc(C#CCN4CCC(n5cc6cc(NC(=O)c7cnn8cccnc78)c(OCC7CC7)cc6n5)CC4)cc3C2=O)C(=O)N1 (stereo not shown) [Example 178]
31 | < 70 | ≥ 100 | O=C1CCC(N2Cc3cc(C#CCN4CCC(n5cc6cc(NC(=O)c7cnn8cccnc78)c(OCC7CC7)cc6n5)CC4)ccc3C2=O)C(=O)N1 (stereo not shown) [Example 179]
32 | ≥ 90 | 10 to 50 | O=C1CCC(N2C(=O)c3ccc(N4CCN(CCOC[C@H](F)Cn5cc6cc(NC(=O)c7cnn8cccnc78)c(OCC7CC7)cc6n5)CC4)cc3C2=O)C(=O)N1 (stereo partly shown) [Example 180]
33 | 80 to 90 | ≥ 100 | O=C1CCC(N2C(=O)c3ccc(N4CCC(COC[C@H](F)Cn5cc6cc(NC(=O)c7cnn8cccnc78)c(OCC7CC7)cc6n5)CC4)cc3C2=O)C(=O)N1 (stereo partly shown) [Example 181]
34 | ≥ 90 | < 10 | COc1cc2nn(C3CCN(CC4CCN(c5ccc6c(c5)C(=O)N(C5CCC(=O)NC5=O)C6=O)CC4)CC3)cc2cc1NC(=O)c1cnn2cccnc12 (stereo not shown) [Example 201]
35 | ≥ 90 | < 10 | COc1cc2nn(C3CCN(CC4CN(c5ccc6c(c5)C(=O)N(C5CCC(=O)NC5=O)C6=O)C4)CC3)cc2cc1NC(=O)c1cnn2cc(Cl)cnc12 (stereo not shown) [Example 203]
36 | < 70 | 50 to 100 | COc1cc2nn(C3CCN(CC#Cc4ccc5c(c4)C(=O)N(C4CCC(=O)NC4=O)C5=O)CC3)cc2cc1NC(=O)c1cnn2cccnc12 (stereo not shown) [Example 204]
37 | 80 to 90 | < 10 | COc1cc2nn(C3CCN(C4CN(c5ccc6c(c5)C(=O)N(C5CCC(=O)NC5=O)C6=O)C4)CC3)cc2cc1NC(=O)c1cnn2cccnc12 (stereo not shown) [Example 205]
38 | ≥ 90 | < 10 | COc1cc2nn(C3CCN(C(C)(C)C4CN(c5ccc6c(c5)C(=O)N(C5CCC(=O)NC5=O)C6=O)C4)CC3)cc2cc1NC(=O)c1cnn2cccnc12 (stereo not shown) [Example 206]
39 | ≥ 90 | 10 to 50 | COc1cc2nn([C@H]3CCN(CC4CCN(c5ccc6c(c5)C(=O)N(C5CCC(=O)NC5=O)C6=O)CC4)C[C@@H]3F)cc2cc1NC(=O)c1cnn2cccnc12 (stereo partly shown) [Example 208]
40 |  | ≥ 100 | COc1cc2nn(C3CCN(CC4CN(c5ccc6c(c5)C(=O)N(C5CCC(=O)NC5=O)C6=O)C4)C3)cc2cc1NC(=O)c1cnn2cccnc12 (stereo not shown) [Example 209]
41 |  | ≥ 100 | COc1cc2nn(C3CCN(CC4CCN(c5ccc6c(c5)C(=O)N(C5CCC(=O)NC5=O)C6=O)CC4)C3)cc2cc1NC(=O)c1cnn2cccnc12 (stereo not shown) [Example 210]
